Measurements published in patent US12696901B2, “Pesticidally active heterocyclic derivatives with sulfur containing substituents” (SYNGENTA CROP PROTECTION AG, priority 2020, dated 2026).

How the values were obtained:
Format in all cases: in vivo
[1] = tested on: Plutella xylostella (Diamond Back Moth); assay: Activity against Plutella xylostella (diamond back moth), treated artificial diet; settings: 192 h, application rate 200 ppm, eggs, 8 days after infestation, read-out: effect in at least one of the two categories (mortality or growth inhibition)
Procedure: Example B5: Activity Against Plutella xylostella (Diamond Back Moth)
24-well microtiter plates with artificial diet were treated with aqueous test solutions prepared from 10,000 ppm DMSO stock solutions by pipetting. After drying, Plutella eggs were pipetted through a plastic stencil onto a gel blotting paper and the plate was closed with it. The samples were assessed for mortality and growth inhibition in comparison to untreated samples 8 days after infestation.

[2] = tested on: Bemisia tabaci (Cotton White Fly); assay: Activity against Bemisia tabaci (cotton white fly), sprayed cotton leaf discs; settings: foliar, 144 h, application rate 200 ppm, adult white flies, 6 days after incubation
Procedure: Example B1: Activity Against Bemisia tabaci (Cotton White Fly)
Cotton leaf discs were placed on agar in 24-well microtiter plates and sprayed with aqueous test solutions prepared from 10,000 ppm DMSO stock solutions. After drying the leaf discs were infested with adult white flies. The samples were checked for mortality 6 days after incubation.

[3] = tested on: Diabrotica balteata (Corn Root Worm); assay: Activity against Diabrotica balteata (corn root worm), corn seedlings on filter paper in cups; settings: 120 h, application rate 3 ppm, L2 larva, 5 days after treatment, read-out: effect in at least one of the two categories (mortality or growth inhibition)
Procedure: Example B12: Activity Against Diabrotica Balteata (Corn Root Worm)
Three corn seedlings were placed on wetted filter paper in plastic cups, and 3 ml of diluted test solutions were pipetted onto them. The cups were infested with 10 L2 larva and checked for mortality and growth regulation 5 days after treatment.

[4] = tested on: Myzus persicae (Green Peach Aphid); assay: Activity against Myzus persicae (green peach aphid), feeding/contact activity; settings: 144 h, application rate 200 ppm, mixed ages, 6 days after infestation
Procedure: Example B6: Activity Against Myzus persicae (Green Peach Aphid) Feeding/Contact Activity
Sunflower leaf discs were placed onto agar in a 24-well microtiter plate and sprayed with aqueous test solutions prepared from 10,000 ppm DMSO stock solutions. After drying, the leaf discs were infested with an aphid population of mixed ages. The samples were assessed for mortality 6 days after infestation.

[5] = tested on: Diabrotica balteata (Corn Root Worm); assay: Activity against Diabrotica balteata (corn root worm), sprayed maize sprouts on agar; settings: 96 h, application rate 200 ppm, L2 larvae, 4 days after infestation, read-out: effect in at least one of the two categories (mortality or growth inhibition)
Procedure: Example B2: Activity Against Diabrotica balteata (Corn Root Worm)
Maize sprouts placed onto an agar layer in 24-well microtiter plates were treated with aqueous test solutions prepared from 10,000 ppm DMSO stock solutions by spraying. After drying, the plates were infested with L2 larvae (6 to 10 per well). The samples were assessed for mortality and growth inhibition in comparison to untreated samples 4 days after infestation.

[6] = tested on: Spodoptera littoralis (Egyptian Cotton Leaf Worm); assay: Activity against Spodoptera littoralis (Egyptian cotton leaf worm), sprayed cotton leaf discs; settings: foliar, 72 h, application rate 200 ppm, L1 larvae, 3 days after infestation
Procedure: Example B7: Activity Against Spodoptera littoralis (Egyptian Cotton Leaf Worm)
Cotton leaf discs were placed onto agar in 24-well microtiter plates and sprayed with aqueous test solutions prepared from 10,000 ppm DMSO stock solutions. After drying the leaf discs were infested with five L1 larvae. The samples were assessed for mortality, anti-feeding effect, and growth inhibition in comparison to untreated samples 3 days after infestation. Control of Spodoptera littoralis by a test sample is given when at least one of the categories mortality, anti-feedant effect, and growth inhibition is higher than the untreated sample.

[7] = tested on: Euschistus heros (Neotropical Brown Stink Bug); assay: Activity against Euschistus heros (neotropical brown stink bug), sprayed soybean leaves; settings: 120 h, application rate 200 ppm, N2 nymphs, 5 days after infestation, read-out: effect in at least one of the two categories (mortality or growth inhibition)
Procedure: Example B3: Activity Against Euschistus heros (Neotropical Brown Stink Bug)
Soybean leaves on agar in 24-well microtiter plates were sprayed with aqueous test solutions prepared from 10,000 ppm DMSO stock solutions. After drying the leaves were infested with N2 nymphs. The samples were assessed for mortality and growth inhibition in comparison to untreated samples 5 days after infestation.

[8] = tested on: Chilo suppressalis (Striped Rice Stemborer); assay: Activity against Chilo suppressalis (striped rice stemborer), treated artificial diet; settings: 144 h, application rate 200 ppm, L2 larvae, 6 days after infestation
Procedure: Example B10: Activity Against Chilo suppressalis (Striped Rice Stemborer)
24-well microtiter plates with artificial diet were treated with aqueous test solutions prepared from 10,000 ppm DMSO stock solutions by pipetting. After drying, the plates were infested with L2 larvae (6-8 per well). The samples were assessed for mortality, anti-feeding effect, and growth inhibition in comparison to untreated samples 6 days after infestation. Control of Chilo suppressalis by a test sample is given when at least one of the categories mortality, anti-feedant effect, and growth inhibition is higher than the untreated sample.

[9] = tested on: Carpocapsa (Cydia) Pomonella (Codling Moth); assay: Activity against Carpocapsa (Cydia) pomonella (codling moth), sprayed diet cubes; settings: 336 h, application rate 12.5 ppm, L1 larvae, 14 days after infestation, read-out: effect in at least one of the two categories (mortality or growth inhibition)
Procedure: Example B11: Activity Against Carpocapsa (Cydia) Pomonella (Codling Moth)
Diet cubes coated with paraffin were sprayed with diluted test solutions in an application chamber. After drying off the treated cubes (10 replicates) were infested with 1 L1 larvae. Samples were incubated at 26-27° C. and checked 14 days after infestation for mortality and growth inhibition. The following compounds gave an effect of at least 80% in at least one of the two categories (mortality or growth inhibition) at an application rate of 12.5 ppm: P1, P2, P3, P4, P5, P6, P10, P11, P12, P14, P15, P16, P17, P19, P20, P21, P22, P24, P27, P29, P30, P33, P34, P35.

CCS(=O)(=O)c1c(N2Cc3ccc(OC(F)(F)F)cc3C2=O)nc2cc(C(F)(F)F)ccn12 [Compound P7, 2-[3-ethylsulfonyl-7-(trifluoromethyl)imidazo[1,2-a]pyridin-2-yl]-6-(trifluoromethoxy) isoindolin-1-one]
≥ 80%: percent effect (mortality or growth inhibition) at 200 ppm [1] | mortality at 200 ppm [2] | percent effect (mortality or growth inhibition) at 3 ppm [3] | mortality at 200 ppm [4] | percent effect (mortality or growth inhibition) at 200 ppm [5] | percent control (mortality, anti-feedant effect or growth inhibition) at 200 ppm [6]

CCS(=O)(=O)c1c(N2Cc3ncc(C(F)(F)F)cc3C2=O)nc2ccc(OC)cn12 [Compound P8, 6-(3-ethylsulfonyl-6-methoxy-imidazo [1,2-a]pyridin-2-yl)-3-(trifluoromethyl)-7H-pyrrolo[3,4-b] pyridin-5-one]
≥ 80%: percent effect (mortality or growth inhibition) at 200 ppm [7] | percent effect (mortality or growth inhibition) at 200 ppm [1] | percent effect (mortality or growth inhibition) at 200 ppm [5] | percent control (mortality, anti-feedant effect or growth inhibition) at 200 ppm [6]

CCS(=O)(=O)c1c(N2Cc3ncc(C(F)(F)F)cc3C2=O)nc2cc(OCC(F)(F)F)ccn12 [Compound P12, 6-[3-ethylsulfonyl-7-(2,2,2-trifluoroethoxy)imidazo[1,2-a]pyridin-2-yl]-3-(trifluoromethyl)-7H-pyrrolo[3,4-b]pyridin-5-one]
≥ 80%: percent effect (mortality or growth inhibition) at 200 ppm [7] | percent effect (mortality or growth inhibition) at 200 ppm [1] | percent effect (mortality or growth inhibition) at 3 ppm [3] | percent control (mortality, anti-feedant effect or growth inhibition) at 200 ppm [8] | mortality at 200 ppm [4] | percent effect (mortality or growth inhibition) at 200 ppm [5] | percent control (mortality, anti-feedant effect or growth inhibition) at 200 ppm [6] | percent effect (mortality or growth inhibition) at 12.5 ppm [9]

CCS(=O)(=O)c1c(N2Cc3ncc(C(F)(F)F)cc3C2=O)nc2ccc(OCC(F)F)cn12 [Compound P19, 6-[6-(2,2-difluoroethoxy)-3-ethylsulfonyl-imidazo[1,2-a]pyridin-2-yl]-3-(trifluoromethyl)-7H-pyrrolo[3,4-b]pyridin-5-one]
≥ 80%: percent effect (mortality or growth inhibition) at 200 ppm [7] | percent effect (mortality or growth inhibition) at 200 ppm [1] | percent effect (mortality or growth inhibition) at 3 ppm [3] | percent control (mortality, anti-feedant effect or growth inhibition) at 200 ppm [8] | mortality at 200 ppm [4] | percent effect (mortality or growth inhibition) at 200 ppm [5] | percent control (mortality, anti-feedant effect or growth inhibition) at 200 ppm [6] | percent effect (mortality or growth inhibition) at 12.5 ppm [9]

CCS(=O)(=O)c1c(N2Cc3ncc(C(F)(F)F)cc3C2=O)nc2ccc(Br)cn12 [Compound P21, 6-(6-bromo-3-ethylsulfonyl-imidazo[1,2-a]pyridin-2-yl)-3-(trifluoromethyl)-7H-pyrrolo[3,4-b]pyridin-5-one]
≥ 80%: percent effect (mortality or growth inhibition) at 200 ppm [7] | percent effect (mortality or growth inhibition) at 200 ppm [1] | percent effect (mortality or growth inhibition) at 3 ppm [3] | percent control (mortality, anti-feedant effect or growth inhibition) at 200 ppm [8] | mortality at 200 ppm [4] | percent effect (mortality or growth inhibition) at 200 ppm [5] | percent control (mortality, anti-feedant effect or growth inhibition) at 200 ppm [6] | percent effect (mortality or growth inhibition) at 12.5 ppm [9]

CCS(=O)(=O)c1c(N2Cc3ncc(C(F)(F)F)cc3C2=O)nc2cc(Br)ccn12 [Compound P22, 6-(7-bromo-3-ethylsulfonyl-imidazo[1,2-a]pyridin-2-yl)-3-(trifluoromethyl)-7H-pyrrolo[3,4-b]pyridin-5-one]
≥ 80%: percent effect (mortality or growth inhibition) at 200 ppm [1] | percent effect (mortality or growth inhibition) at 3 ppm [3] | percent control (mortality, anti-feedant effect or growth inhibition) at 200 ppm [8] | mortality at 200 ppm [4] | percent effect (mortality or growth inhibition) at 200 ppm [5] | percent control (mortality, anti-feedant effect or growth inhibition) at 200 ppm [6] | percent effect (mortality or growth inhibition) at 12.5 ppm [9]

CCS(=O)(=O)c1c(N2Cc3ncc(C(F)(F)F)cc3C2=O)nc2cc(C3CC3)ccn12 [Compound P24, 6-(7-cyclopropyl-3-ethylsulfonyl-imidazo[1,2-a]pyridin-2-yl)-3-(trifluoromethyl)-7H-pyrrolo[3,4-b]pyridin-5-one]
≥ 80%: percent effect (mortality or growth inhibition) at 200 ppm [7] | percent effect (mortality or growth inhibition) at 200 ppm [1] | percent effect (mortality or growth inhibition) at 3 ppm [3] | percent control (mortality, anti-feedant effect or growth inhibition) at 200 ppm [8] | mortality at 200 ppm [4] | percent effect (mortality or growth inhibition) at 200 ppm [5] | percent control (mortality, anti-feedant effect or growth inhibition) at 200 ppm [6] | percent effect (mortality or growth inhibition) at 12.5 ppm [9]

CCS(=O)(=O)c1c(N2Cc3ccc(OC(F)(F)F)cc3C2=O)nc2ccc(OC(C)(C)C#N)cn12 [Compound P26, 2-[3-ethylsulfonyl-2-[1-oxo-6-(trifluoromethoxy)isoindolin-2-yl]imidazo[1,2-a]pyridin-6-yl]oxy-2-methyl-propanenitrile]
≥ 80%: percent effect (mortality or growth inhibition) at 200 ppm [1] | mortality at 200 ppm [2] | percent effect (mortality or growth inhibition) at 3 ppm [3] | percent control (mortality, anti-feedant effect or growth inhibition) at 200 ppm [8] | mortality at 200 ppm [4] | percent effect (mortality or growth inhibition) at 200 ppm [5] | percent control (mortality, anti-feedant effect or growth inhibition) at 200 ppm [6]

CCS(=O)(=O)c1c(N2Cc3ccc(OC(F)(F)F)cc3C2=O)nc2ccc(Br)cn12 [Compound P29, 2-(6-bromo-3-ethylsulfonyl-imidazo [1,2-a]pyridin-2-yl)-6-(trifluoromethoxy) isoindolin-1-one]
≥ 80%: percent effect (mortality or growth inhibition) at 200 ppm [1] | percent effect (mortality or growth inhibition) at 3 ppm [3] | percent control (mortality, anti-feedant effect or growth inhibition) at 200 ppm [8] | mortality at 200 ppm [4] | percent effect (mortality or growth inhibition) at 200 ppm [5] | percent control (mortality, anti-feedant effect or growth inhibition) at 200 ppm [6] | percent effect (mortality or growth inhibition) at 12.5 ppm [9]

CCS(=O)(=O)c1c(N2Cc3ccc(OC(F)F)cc3C2=O)nc2ccc(C(F)(F)F)cn12 [Compound P34, 6-(difluoromethoxy)-2-[3-ethylsulfonyl-6-(trifluoromethyl)imidazo[1,2-a]pyridin-2-yl]isoindolin-1-one]
≥ 80%: percent effect (mortality or growth inhibition) at 200 ppm [1] | percent effect (mortality or growth inhibition) at 3 ppm [3] | percent control (mortality, anti-feedant effect or growth inhibition) at 200 ppm [8] | mortality at 200 ppm [4] | percent effect (mortality or growth inhibition) at 200 ppm [5] | percent control (mortality, anti-feedant effect or growth inhibition) at 200 ppm [6] | percent effect (mortality or growth inhibition) at 12.5 ppm [9]
